From PMC12142043, “Cell-based high-content approach for SARS-CoV-2 neutralization identifies unique monoclonal antibodies and PI3K pathway inhibitors” (Frontiers in Cell and Developmental Biology, 2025)

Tested on: SARS-CoV-2 (USA-WA1/2020) in Calu-3 cells
Format: cell-based
Conditions: Calu-3, 48 h; for dsRNA signal, AU High: high dose (10 µM); for dsRNA signal, AU Low: low dose (100 nM)

| SMILES | dsRNA signal, AU High | dsRNA signal, AU Low |
| --- | --- | --- |
| CCN1C(=O)CNc2ncc(-c3ccc(-c4nc[nH]n4)nc3C)nc21 [CC-115] | 5666.1 AU | 44138.8 AU |
| COc1ccc2c(c1)[nH]c1c(C)nccc12 [Harmine] | 9958.7 AU | 24294.0 AU |
| COc1cc2nccc(Oc3ccc(NC(=O)Nc4cc(C)on4)c(Cl)c3)c2cc1OC [Tivozanib (AV-951)] | 40142.9 AU | 36133.0 AU |
| O=C(/C=C/c1ccc(O)c(O)c1)O[C@H](Cc1ccc(O)c(O)c1)C(=O)O [Rosmarinic acid] | 3864.4 AU | 42457.9 AU |
| C[C@@H]1CC[C@H]2[C@@H](C)C(=O)O[C@@H]3O[C@@]4(C)CC[C@@H]1[C@]32OO4 [Artemisinine] | 2826.9 AU | 35035.3 AU |
| CCN1CCN(c2ccc(Nc3cc(N(C)C(=O)Nc4c(Cl)c(OC)cc(OC)c4Cl)ncn3)cc2)CC1 [BGJ398] | 24356.1 AU | 22673.4 AU |
| CC(O)C(=O)O.CC(O)C(=O)O.CN1CCN(c2ccc3nc(-c4c(N)c5c(F)cccc5[nH]c4=O)[nH]c3c2)CC1 [Dovitinib Dilactic acid] | 47107.5 AU | 17331.2 AU |
| CCOC(=O)c1ccc(N2NC(=O)/C(=C/c3ccc([N+](=O)[O-])o3)C2=O)cc1 [PYR-41] | 41809.3 AU | 6659.6 AU |
| COc1cc(Nc2c(C#N)cnc3cc(OCCCN4CCN(C)CC4)c(OC)cc23)c(Cl)cc1Cl [Bosutinib (SKI-606)] | 38090.7 AU | 42027.4 AU |
| N#C/C(=C(/N)Sc1ccc(N)cc1)c1ccccc1C(F)(F)F [SL-327] | 10911.9 AU | 24198.7 AU |
| COc1ccc(CNC(=O)Nc2ncc([N+](=O)[O-])s2)cc1 [AR-A014418] | 79.4 AU | 22152.5 AU |
| c1ccc2c(-c3cnn4cc(-c5ccc(N6CCNCC6)cc5)cnc34)ccnc2c1 [LDN-193189] | 30043.0 AU | 7399.9 AU |
| CNC(=O)Nc1ccc(-c2nc(N3CC4CCC(C3)O4)c3cnn(C4CCC5(CC4)OCCO5)c3n2)cc1 [WYE-125132 (WYE-132)] | 4894.7 AU | 21738.1 AU |
| Cc1ccccc1CN1C(=O)C2=C(CCN(Cc3ccccc3)C2)N2CCN=C12 [TIC10] | 0.0 AU | 1481.6 AU |
| Cc1cc(CN2CCN(c3c(Br)cnc4nc(-c5ccc(N6CCN(C)CC6)cc5)[nH]c34)CC2)no1 [CCT137690] | 0.0 AU | 46657.6 AU |
| c1cn2cc(-c3ccc4cn[nH]c4c3)nc(Nc3ccc(N4CCOCC4)cc3)c2n1 [GS-9973] | 32878.5 AU | 51541.3 AU |
| O=[N+]([O-])c1ccc(Nc2nc(N3CCOCC3)nc(N3CCOCC3)n2)cc1 [MHY1485] | 4962.4 AU | 35655.5 AU |
| Cl.O=c1[nH]ccc2c(S(=O)(=O)N3CCCNCC3)cccc12 [Hydroxyfasudil hydrochloride] | 2331.1 AU | 751.7 AU |
| O=C(O)C(Cl)Cl [DCA] | 2582.6 AU | 13605.1 AU |
| Cc1ccc([N+](=O)[O-])cc1S(=O)(=O)N(C)/N=C/c1cnc2ccc(Br)cn12 [PIK-75] | 6934.4 AU | 3754.5 AU |
| C/C(O)=C(\C#N)C(=O)Nc1cc(Br)ccc1Br [LFM-A13] | 60025.3 AU | 42758.8 AU |
| Cc1ccc(-n2nc(C(C)(C)C)cc2NC(=O)Nc2ccc(OCCN3CCOCC3)c3ccccc23)cc1 [BIRB 796 (Doramapimod)] | 8315.3 AU | 13140.6 AU |
| COc1ccc(S(=O)(=O)Nc2ccccc2CN(C)C/C=C/c2ccc(Cl)cc2)cc1.Cl [KN-92 hydrochloride] | 0.0 AU | 14359.5 AU |
